Laboratory results taken from PMC9832530 (FASEB BioAdvances, 2022).

Target: T1, drFtsZ (FtsZWT) (Deinococcus radiodurans, UniProt Q9RWN5)
T1 sequence (Q9RWN5 1-371): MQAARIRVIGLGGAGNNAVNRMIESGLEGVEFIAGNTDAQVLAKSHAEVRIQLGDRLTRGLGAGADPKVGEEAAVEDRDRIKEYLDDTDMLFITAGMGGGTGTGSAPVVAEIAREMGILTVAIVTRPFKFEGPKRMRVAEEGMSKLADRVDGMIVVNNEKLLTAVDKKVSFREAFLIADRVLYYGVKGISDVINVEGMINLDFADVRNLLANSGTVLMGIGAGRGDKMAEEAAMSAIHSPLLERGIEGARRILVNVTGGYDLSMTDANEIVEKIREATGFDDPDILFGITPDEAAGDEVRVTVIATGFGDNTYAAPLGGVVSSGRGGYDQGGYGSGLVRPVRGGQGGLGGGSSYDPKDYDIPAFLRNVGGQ
Experiment: GTPase, [alpha-32P]-GTP to GDP by TLC
Assay type: biochemical
Details: 20 mM Tris-HCl pH 7.5, 75 mM KCl, MgCl2, 37 °C, 20 min; labelled compound

Compound: Nc1nc2c(ncn2[C@@H]2O[C@H](COP(=O)(O)OP(=O)(O)OP(=O)(O)O)[C@@H](O)[C@H]2O)c(=O)[nH]1 [GTP]
- GTPase, [alpha-32P]-GTP to GDP by TLC: The GTPase activity of S235 and S335 mutants were estimated using thin‐layer chromatography
